# Measured values as given in publication PMC11231114 (EJNMMI Research, 2024).
# Several values for one entry are separate records, joined by “and”; a condition that tells them apart may be missing. Equal entries are not always repeated.
# Test: Dosimetry: human absorbed dose extrapolated from rat biodistribution (OLINDA/EXM)
# Conditions: human estimate extrapolated from rats
# From the text: The pharmacokinetics data from ex vivo biodistribution studies in rats were extrapolated to humans using the simplest allometric scaling model to estimate an effective dose in mSv/MBq. The dose calculation was done using computer software for internal dose assessment OLINDA/EXM® (Version 1.1, copyright Vanderbilt University, 2007).
# This work estimated the human absorbed radiation dose based on a detailed description of activity organ distribution data for normal rats. […] Additionally, the obtained theoretical values for examined cardiotracers were compared with [^18F]flurpiridaz absorbed dose calculated in exercise stress subjects in humans (Table 6).
smiles,measurement,value
CN(C)c1ccc2cc3ccc(N(C)C)cc3[n+](CC[18F])c2c1 [[^18F]SYN2],"Absorbed dose per administrated activity, Adrenals",8.06E-03 mSv/MBq
same,"Absorbed dose per administrated activity, Brain",2.84E-03 mSv/MBq
same,"Absorbed dose per administrated activity, Breasts",2.93E-03 mSv/MBq
same,"Absorbed dose per administrated activity, Gallbladder Wall",8.01E-03 mSv/MBq
same,"Absorbed dose per administrated activity, Heart Wall",0.0415 mSv/MBq and 0.042 mSv/MBq and 4.15E-02 mSv/MBq
same,"Absorbed dose per administrated activity, Kidneys",0.0704 mSv/MBq and 0.070 mSv/MBq and 7.04E-02 mSv/MBq
same,"Absorbed dose per administrated activity, Liver",1.17E-02 mSv/MBq
same,"Absorbed dose per administrated activity, Lower Large Intestine Wall",1.18E-02 mSv/MBq
same,"Absorbed dose per administrated activity, Lungs",2.16E-02 mSv/MBq
same,"Absorbed dose per administrated activity, Muscle",1.03E-02 mSv/MBq
same,"Absorbed dose per administrated activity, Osteogenic Cells",4.02E-03 mSv/MBq
same,"Absorbed dose per administrated activity, Ovaries",7.10E-03 mSv/MBq
same,"Absorbed dose per administrated activity, Pancreas",0.0285 mSv/MBq and 2.85E-02 mSv/MBq
same,"Absorbed dose per administrated activity, Red Marrow",4.77E-03 mSv/MBq
same,"Absorbed dose per administrated activity, Skin",2.65E-03 mSv/MBq
same,"Absorbed dose per administrated activity, Small Intestine",1.84E-02 mSv/MBq
same,"Absorbed dose per administrated activity, Spleen",2.13E-02 mSv/MBq
same,"Absorbed dose per administrated activity, Stomach Wall",1.19E-02 mSv/MBq
same,"Absorbed dose per administrated activity, Testes",4.97E-03 mSv/MBq
same,"Absorbed dose per administrated activity, Thymus",5.48E-03 mSv/MBq
same,"Absorbed dose per administrated activity, Thyroid",2.49E-02 mSv/MBq
same,"Absorbed dose per administrated activity, Total Body",7.67E-03 mSv/MBq
same,"Absorbed dose per administrated activity, Upper Large Intestine Wall",2.01E-02 mSv/MBq
same,"Absorbed dose per administrated activity, Urinary Bladder Wall",5.29E-03 mSv/MBq
same,"Absorbed dose per administrated activity, Uterus",6.27E-03 mSv/MBq
same,Effective Dose Equivalent,1.71E-02 mSv/MBq
same,Effective dose,0.0109 mSv/MBq and 1.09E-02 mSv/MBq
